Data: patent publication US20210393807A1, “PHOTOACOUSTIC VOLTAGE-SENSITIVE DYES FOR IN VIVO IMAGING” (The Johns Hopkins University, priority 2016, published 2021)
“And” between values parts separate entries of the source, which are not always exact repeats. Identical values can stand only once.

Experiments:
rat brain [1] = assay: Microdialysis of extracellular glutamate during NMDA infusion; format: in vivo, Sprague Dawley rats; details: NMDA infusion phase, 0.3-mM NMDA via microdialysis probe; baseline phase 0.557 μM
Source text: (§1) 3.1.1 Animal preparation. For the in vivo experiments, 8-9-week-old male Sprague Dawley rats weighing 275-390 g were used (Charles Rivers Laboratory, Inc., MA, United States). The use of animals for the proposed experimental protocol was approved by the Institutional Research Board Committee of Johns Hopkins Medical Institute (RA16M225). The hair was shaved from the scalp of each rat for improved optical/acoustic coupling for transcranial PA recording. The head of the anesthetized rat was fixed to a stable position using a standard stereotaxic device. This fixation procedure was required to prevent any unpredictable movement during PA recording of neural activities.
3.1.2 Microdialysis setup. The microdialysis probe consists of a shaft with a semipermeable hollow membrane tip, which is connected to inlet and outlet tubing. The extracellular fluid samples were continuously acquired before and after the infusion of 0.3-mM NMDA through the inlet of the microdialysis probe (FIG. 22A). Each acquisition of extracellular fluid sample took 20 min with 2 μL/min flow rate. From the samples, the change of glutamate concentration was measured.
3.1.3 In vivo experimental protocol. […] PA data acquisition was continuously performed for 40 min to be correlated with the glutamate concentration change measured by microdialysis with 20-min intervals. […]

rat brain [2] = assay: PA recording of neural activity index during NMDA infusion; format: in vivo, Sprague Dawley rats
Source text: as §1
3.1.3 In vivo experimental protocol. The in vivo protocol was designed to have two different phases: baseline and NMDA infusion (FIG. 22B). PA data acquisition was continuously performed for 40 min to be correlated with the glutamate concentration change measured by microdialysis with 20-min intervals. The baseline phase was designed to confirm its stable neural activity before the NMDA infusion. […]

SMILES: CN[C@H](CC(=O)O)C(=O)O [NMDA]
- extracellular glutamate concentration (rat brain [1]): 0.000643 mM and 0.000648 mM
- increase of neural activity index estimated by PA recording (rat brain [2]; 30 min of NMDA infusion, after VSD and Lexiscan administration): up to 3.27 times
- time at which the increase of index is saturated (rat brain [2]; from the start of NMDA infusion): 10 to 15 min
